Measured values from patent publication US10023570B2 (Array BioPharma, Inc., priority 2015, dated 2018).
Where a name gives a salt, the structure may show the parent alone. Read-outs that look alike come from different tables or passages of the source.

How the values were obtained:
[1] = target: N-terminal GST tagged recombinant human RET cytoplasmic domain (aa 658-end), wild type RET kinase (Homo sapiens (Human), UniProt P07949); experiment: RET Enzyme Assay (HTRF KinEASE-TK), wild type RET; format: biochemical
N-terminal GST tagged recombinant human RET cytoplasmic domain (aa 658-end), wild type RET kinase, sequence (P07949 658-1114): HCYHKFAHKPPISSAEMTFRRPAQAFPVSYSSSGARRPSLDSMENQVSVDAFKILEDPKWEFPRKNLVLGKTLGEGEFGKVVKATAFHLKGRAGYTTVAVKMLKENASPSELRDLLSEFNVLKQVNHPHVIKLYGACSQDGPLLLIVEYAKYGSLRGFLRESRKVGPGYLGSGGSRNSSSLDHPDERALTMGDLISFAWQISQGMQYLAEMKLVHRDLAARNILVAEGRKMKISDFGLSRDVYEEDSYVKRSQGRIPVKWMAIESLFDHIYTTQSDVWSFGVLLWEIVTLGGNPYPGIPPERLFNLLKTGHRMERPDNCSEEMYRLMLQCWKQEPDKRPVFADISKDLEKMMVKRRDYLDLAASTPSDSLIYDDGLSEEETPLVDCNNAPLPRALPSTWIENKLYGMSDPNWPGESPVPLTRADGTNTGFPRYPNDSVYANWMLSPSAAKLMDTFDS

[2] = target: Kif5b-RET fusion protein in HEK-293 cells (Homo sapiens, UniProt P07949); experiment: cell-based
Kif5b-RET fusion protein in HEK-293 cells, sequence (P07949 29-1114 limits assumed): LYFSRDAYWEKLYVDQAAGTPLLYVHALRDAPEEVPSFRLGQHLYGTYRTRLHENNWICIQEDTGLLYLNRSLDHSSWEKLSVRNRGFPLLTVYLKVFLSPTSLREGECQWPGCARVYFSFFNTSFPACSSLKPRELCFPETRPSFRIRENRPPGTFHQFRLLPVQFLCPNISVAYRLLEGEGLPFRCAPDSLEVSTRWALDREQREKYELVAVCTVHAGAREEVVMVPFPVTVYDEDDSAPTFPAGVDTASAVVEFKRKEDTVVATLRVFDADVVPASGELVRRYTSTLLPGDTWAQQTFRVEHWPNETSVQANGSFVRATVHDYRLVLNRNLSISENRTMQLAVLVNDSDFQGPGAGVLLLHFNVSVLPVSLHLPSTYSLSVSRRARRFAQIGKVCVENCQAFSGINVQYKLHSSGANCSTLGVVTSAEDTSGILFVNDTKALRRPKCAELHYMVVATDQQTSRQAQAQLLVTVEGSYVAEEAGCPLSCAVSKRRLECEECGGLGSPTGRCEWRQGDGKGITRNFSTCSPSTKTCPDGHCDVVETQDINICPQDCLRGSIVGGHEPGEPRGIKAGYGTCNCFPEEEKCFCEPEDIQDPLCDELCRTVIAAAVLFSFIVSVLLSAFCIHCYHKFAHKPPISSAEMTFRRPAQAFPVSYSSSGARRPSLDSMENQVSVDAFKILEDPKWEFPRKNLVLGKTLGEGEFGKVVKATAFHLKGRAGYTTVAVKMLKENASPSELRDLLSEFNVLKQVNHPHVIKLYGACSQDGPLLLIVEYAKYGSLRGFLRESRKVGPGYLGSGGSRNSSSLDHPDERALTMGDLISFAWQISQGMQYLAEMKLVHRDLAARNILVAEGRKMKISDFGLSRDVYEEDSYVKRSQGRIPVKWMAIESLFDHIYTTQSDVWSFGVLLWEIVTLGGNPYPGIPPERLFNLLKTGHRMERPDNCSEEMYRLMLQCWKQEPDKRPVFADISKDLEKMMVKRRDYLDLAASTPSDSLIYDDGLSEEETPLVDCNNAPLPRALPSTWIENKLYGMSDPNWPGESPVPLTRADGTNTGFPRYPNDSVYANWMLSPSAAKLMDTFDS

[3] = target: human KDR protein in HEK-293 cells (Homo sapiens (Human), UniProt P35968); experiment: KDR Cell Assay (phospho-KDR in HEK-293 cells expressing inducible KDR); format: cell-based; conditions: pKDR Cell HEK 10% FBS IC50, HEK-293 cells expressing inducible KDR, VEGF stimulated, 10% FBS
human KDR protein in HEK-293 cells, sequence (P35968 20-1356): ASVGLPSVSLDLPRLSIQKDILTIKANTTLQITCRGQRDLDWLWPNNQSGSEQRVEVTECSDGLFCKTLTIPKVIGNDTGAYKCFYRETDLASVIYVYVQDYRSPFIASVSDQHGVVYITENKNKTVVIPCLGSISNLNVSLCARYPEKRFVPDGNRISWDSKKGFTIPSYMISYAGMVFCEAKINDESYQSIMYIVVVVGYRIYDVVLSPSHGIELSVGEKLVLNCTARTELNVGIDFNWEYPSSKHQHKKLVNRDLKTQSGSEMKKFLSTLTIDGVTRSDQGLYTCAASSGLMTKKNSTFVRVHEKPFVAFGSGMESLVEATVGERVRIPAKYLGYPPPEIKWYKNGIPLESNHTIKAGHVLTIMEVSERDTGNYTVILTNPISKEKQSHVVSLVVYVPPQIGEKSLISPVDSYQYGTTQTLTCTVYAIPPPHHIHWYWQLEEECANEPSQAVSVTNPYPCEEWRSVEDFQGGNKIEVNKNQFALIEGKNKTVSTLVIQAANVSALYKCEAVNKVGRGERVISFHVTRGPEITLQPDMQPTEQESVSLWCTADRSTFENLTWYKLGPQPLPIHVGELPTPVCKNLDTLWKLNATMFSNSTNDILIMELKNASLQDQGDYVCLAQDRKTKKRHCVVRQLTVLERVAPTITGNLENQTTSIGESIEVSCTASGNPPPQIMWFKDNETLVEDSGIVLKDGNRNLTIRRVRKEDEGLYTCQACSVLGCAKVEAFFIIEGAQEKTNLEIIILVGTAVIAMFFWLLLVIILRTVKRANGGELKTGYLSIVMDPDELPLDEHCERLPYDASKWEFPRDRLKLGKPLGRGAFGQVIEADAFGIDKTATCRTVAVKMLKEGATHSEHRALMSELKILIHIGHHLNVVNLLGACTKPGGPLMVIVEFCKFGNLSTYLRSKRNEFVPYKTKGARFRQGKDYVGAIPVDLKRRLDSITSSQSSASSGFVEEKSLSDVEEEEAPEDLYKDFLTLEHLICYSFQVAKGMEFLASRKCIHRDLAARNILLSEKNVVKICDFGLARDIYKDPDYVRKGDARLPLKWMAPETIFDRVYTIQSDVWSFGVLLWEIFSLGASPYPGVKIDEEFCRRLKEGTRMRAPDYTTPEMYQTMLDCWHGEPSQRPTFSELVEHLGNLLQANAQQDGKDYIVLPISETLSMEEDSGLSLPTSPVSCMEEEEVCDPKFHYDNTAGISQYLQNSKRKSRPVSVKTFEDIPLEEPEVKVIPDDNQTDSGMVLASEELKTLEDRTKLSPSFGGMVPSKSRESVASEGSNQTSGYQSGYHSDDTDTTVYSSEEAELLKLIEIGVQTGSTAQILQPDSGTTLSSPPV
How it was run: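 HEK-293 cells with inducible human KDR were treated with compound for 1 h in DMEM (0.25% DMSO final), then lysed. Phospho-KDR was quantified by Meso Scale immunoassay, expressed as percent of control, and IC50 taken where a 4-parameter logistic fit crossed 50 POC.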

[4] = HEK-293 cells expressing Kif5b-RET, phospho-RET(Tyr1062), read-out: KIF5B-RET pTYR1062 Cell IC50
[5] = read-out: KIF5B-RET pTYR1062 Cell IC50

Row | IC50 [2, 4] [nM] | SMILES | IC50 ([1]; wild type RET, 1 mM ATP) [nM] | IC50 [2] [nM] | IC50 [3] [nM] | IC50 [1] [nM] | IC50 [2, 5] [nM]
1 |  | C[C@H](O)[C@@H](C)N1CCN(c2ccc(-c3cc(-c4cnn(C)c4)cn4ncc(C#N)c34)cn2)CC1 (racemic) [Example 165, rac-4-(6-(4-((2R*,3S*)-3-hydroxybutan-2-yl)piperazin-1-yl)pyridin-3-yl)-6-(1-methyl-1H-pyrazol-4-yl)pyrazolo[1,5-a]pyridine-3-cartonitrile] | 24.8 | 28.9 | 2020 |  | 
2 | 19.8 | Cn1cc(-c2cc(-c3ccc(N4CCN(C(=O)CN(C(=O)OC(C)(C)C)C(C)(C)C)CC4)nc3)c3c(C#N)cnn3c2)cn1 [Example 18, tert-butyl tert-butyl(2-(4-(5-(3-cyano-6-(1-methyl-1H-pyrazol-4-yl)pyrazolo[1,5-a]pyridin-4-yl)pyridin-2-yl)piperazin-1-yl)-2-oxoethyl)carbamate] | 30.6 |  | 229 |  | 
3 |  | Cn1cc(-c2cc(-c3ccc(N4CCN(C(=O)CNC(C)(C)C)CC4)nc3)c3c(C#N)cnn3c2)cn1 [Example 22, 4-(6-(4-(2-(tert-butylamino)acetyl)piperazin-1-yl)pyridin-3-yl)-6-(1-methyl-1H-pyrazol-4-yl)pyrazolo[1,5-a]pyridine-3-carbonitrile dihydrochloride] | 14.8 |  | 630 |  | 22.5
4 | 124 | C[C@H](O)C(=O)N1CCN(c2ccc(-c3cc(-c4cnn(C)c4)cn4ncc(C#N)c34)cn2)CC1 [Example 30, (S)-4-(6-(4-(2-hydroxypropanoyl)piperazin-1-yl)pyridin-3-yl)-6-(1-methyl-1H-pyrazol-4-yl)pyrazolo[1,5-a]pyridine-3-carbonitrile] | 22.1 |  | 921 |  | 
5 | 76.1 | Cn1cc(-c2cc(-c3ccc(N4CCN(C(=O)C(C)(C)O)CC4)nc3)c3c(C#N)cnn3c2)cn1 [Example 31, 4-(6-(4-(2-hydroxy-2-methylpropanoyl)piperazin-1-yl)pyridin-3-yl)-6-(1-methyl-1H-pyrazol-4-yl)pyrazolo[1,5-a]pyridine-3-carbonitrile] | 36.7 |  | 2550 |  | 
6 | 108 | C[C@@H](O)C(=O)N1CCN(c2ccc(-c3cc(-c4cnn(C)c4)cn4ncc(C#N)c34)cn2)CC1 [Example 32, (R)-4-(6-(4-(2-hydroxypropanoyl)piperazin-1-yl)pyridin-3-yl)-6-(1-methyl-1H-pyrazol-4-yl)pyrazolo[1,5-a]pyridine-3-carbonitrile] | 23.9 |  | 749 |  | 
7 |  | Cn1cc(-c2cc(-c3ccc(N4CCN(C(=O)C(C)(C)C)CC4)nc3)c3c(C#N)cnn3c2)cn1 [Example 34, 6-(1-methyl-1H-pyrazol-4-yl)-4-(6-(4-pivaloylpiperazin-1-yl)pyridin-3-yl)pyrazolo[1,5-a]pyridine-3-carbonitrile 2,2,2-trifluoroacetate] | 34.8 |  | 3040 |  | 61.2
8 |  | COCC(=O)N1CCN(c2ccc(-c3cc(-c4cnn(C)c4)cn4ncc(C#N)c34)cn2)CC1 [Example 40, 4-(6-(4-(2-methoxyacetyl)piperazin-1-yl)pyridin-3-yl)-6-(1-methyl-1H-pyrazol-4-yl)pyrazolo[1,5-a]pyridine-3-carbonitrile 2,2,2-trifluoroacetate] | 13.7 |  | 221 |  | 11.2
9 |  | COc1ccc(CN2CCN(c3ccc(-c4cc(-c5cnn(C)c5)cn5ncc(C)c45)cn3)CC2)cn1 [Example 744, 4-(6-(4-((6-methoxypyridin-3-yl)methyl)piperazin-1-yl)pyridin-3-yl)-3-methyl-6-(1-methyl-1H-pyrazol-4-yl)pyrazolo[1,5-a]pyridine] | 46.2 | 66.3 |  |  | 

Row | SMILES | IC50 [2, 4] [nM] | IC50 ([1]; wild type RET, 1 mM ATP) [nM] | IC50 [2] [nM] | IC50 [3] [nM] | IC50 [1] [nM] | IC50 [2, 5] [nM]
10 | Cn1cc(-c2cc(-c3ccc(N4CCNCC4)nc3)c3c(C#N)cnn3c2)cn1 [Example 2, 6-(1-methyl-1H-pyrazol-4-yl)-4-(6-(piperazin-1-yl)pyridin-3-yl)pyrazolo[1,5-a]pyridine-3-carbonitrile dihydrochloride] | 111 |  |  | 1080 | 19.6 | 
